The term IC50 denotes the concentration needed to halve the response being measured.

Among the data in patent US9902702B2, “Spirocycloheptanes as inhibitors of rock” (BRISTOL-MYERS SQUIBB COMPANY, priority 2014, dated 2018) are IC50 values, retold here.

The target of this test is ROCK2 (Homo sapiens, UniProt O75116). The test is described as follows: ROCK assay: phosphorylation of FITC peptide substrate, LABCHIP 3000 mobility shift. Particulars: 5 μM ATP, 1.5 μM peptide substrate; read-out: ROCK2 Activity (ROCK IC50 range). Format: biochemical. The gist of the method:
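IC50 values come from curve-fitting percent kinase inhibition across a compound dilution series. The reaction is started with Rho kinase variant in HEPES pH 7.5 buffer with MgCl2, Brij-35 and DTT, with 5 μM ATP, 1.5 μM FITC-labelled peptide and under 2% DMSO. After EDTA quench, product and substrate are separated by microfluidic mobility shift.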

ROCK2, sequence (O75116 whole entry, species assumed): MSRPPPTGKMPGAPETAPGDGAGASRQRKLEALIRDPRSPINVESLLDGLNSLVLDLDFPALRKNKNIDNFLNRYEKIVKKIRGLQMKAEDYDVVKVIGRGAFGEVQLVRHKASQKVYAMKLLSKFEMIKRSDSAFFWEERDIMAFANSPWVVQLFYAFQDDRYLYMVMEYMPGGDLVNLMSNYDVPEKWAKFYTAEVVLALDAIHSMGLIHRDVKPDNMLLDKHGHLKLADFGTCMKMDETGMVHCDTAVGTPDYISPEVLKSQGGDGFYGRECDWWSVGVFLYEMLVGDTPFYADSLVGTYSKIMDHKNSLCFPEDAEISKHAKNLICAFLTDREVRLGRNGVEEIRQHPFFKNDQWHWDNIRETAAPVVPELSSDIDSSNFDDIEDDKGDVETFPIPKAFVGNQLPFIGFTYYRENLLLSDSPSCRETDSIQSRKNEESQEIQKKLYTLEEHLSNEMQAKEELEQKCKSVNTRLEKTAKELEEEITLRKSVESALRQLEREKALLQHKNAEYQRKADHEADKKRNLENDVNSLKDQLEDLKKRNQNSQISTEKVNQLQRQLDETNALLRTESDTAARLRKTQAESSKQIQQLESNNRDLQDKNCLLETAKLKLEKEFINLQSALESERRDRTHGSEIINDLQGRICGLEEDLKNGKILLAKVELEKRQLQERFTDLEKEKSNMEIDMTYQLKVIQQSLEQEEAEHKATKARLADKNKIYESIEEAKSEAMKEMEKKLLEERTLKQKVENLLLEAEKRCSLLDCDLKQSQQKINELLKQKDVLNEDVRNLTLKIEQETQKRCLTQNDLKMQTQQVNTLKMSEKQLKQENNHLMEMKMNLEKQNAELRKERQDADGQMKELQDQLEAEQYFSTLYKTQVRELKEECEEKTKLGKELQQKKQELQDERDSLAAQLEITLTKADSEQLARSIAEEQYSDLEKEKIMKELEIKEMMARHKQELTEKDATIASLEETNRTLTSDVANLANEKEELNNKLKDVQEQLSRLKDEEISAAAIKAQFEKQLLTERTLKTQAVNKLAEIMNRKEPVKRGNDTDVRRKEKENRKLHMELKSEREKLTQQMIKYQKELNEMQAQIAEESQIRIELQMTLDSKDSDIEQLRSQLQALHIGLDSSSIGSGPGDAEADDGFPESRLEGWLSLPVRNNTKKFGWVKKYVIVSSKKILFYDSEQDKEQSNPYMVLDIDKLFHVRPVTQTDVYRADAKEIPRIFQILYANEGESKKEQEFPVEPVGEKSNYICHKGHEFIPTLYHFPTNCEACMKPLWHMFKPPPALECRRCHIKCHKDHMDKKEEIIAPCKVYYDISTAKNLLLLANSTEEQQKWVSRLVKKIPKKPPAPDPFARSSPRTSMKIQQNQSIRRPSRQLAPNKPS

On to `[H][C@]1(c2n[nH]c(=O)c3ccccc32)C[C@]2(C[C@@H](NC(=O)c3ccc(N4CCCC4)cn3)C2)C1` (stereo partly drawn) [Example 369, N-((aR)-6-(4-oxo-3,4-dihydrophthalazin-1-yl)spiro[3.3]heptan-2-yl)-5-(pyrrolidin-1-yl)picolinamide], for which the IC50 was in the range of 15.1 to 100 nM. Regarding `[H][C@]1(c2n[nH]c(=O)c3ccccc32)C[C@]2(C[C@@H](NC(=O)c3ccc(C(F)(F)F)cn3)C2)C1` (stereo partly drawn) [Example 370, N-((aR)-6-(4-oxo-3,4-dihydrophthalazin-1-yl)spiro[3.3]heptan-2-yl)-5-(trifluoromethyl) picolinamide], the IC50 was 5.1 to 15 nM.

As for `[H][C@]1(c2n[nH]c(=O)c3ccccc32)C[C@]2(C[C@@H](NC(=O)c3ccc(C#N)c(C)n3)C2)C1` (stereo partly drawn) [Example 371, 5-cyano-6-methyl-N-((aR)-6-(4-oxo-3,4-dihydrophthalazin-1-yl)spiro[3.3]heptan-2-yl)picolinamide], the IC50 lay in the range of 15.1 to 100 nM.

For the compound `[H][C@]1(c2n[nH]c(=O)c3ccccc32)C[C@]2(C[C@@H](NC(=O)c3[nH]c4c(OC)cccc4c3C)C2)C1` (stereo partly drawn) [Example 372, 7-methoxy-3-methyl-N-((aR)-6-(4-oxo-3,4-dihydrophthalazin-1-yl)spiro[3.3]heptan-2-yl)-1H-indole-2-carboxamide], the IC50 lay within 15.1 to 100 nM. For `[H][C@]1(c2n[nH]c(=O)c3ccccc32)C[C@]2(C[C@@H](NC(=O)c3ccc4c(cnn4C)c3)C2)C1` (stereo partly drawn) [Example 373, 1-methyl-N-((aR)-6-(4-oxo-3,4-dihydrophthalazin-1-yl)spiro[3.3]heptan-2-yl)-1H-indazole-5-carboxamide], the IC50 is 15.1 to 100 nM. For the compound `[H][C@]1(c2n[nH]c(=O)c3ccccc32)C[C@]2(C[C@@H](NC(=O)c3cn4ccc(Br)cc4n3)C2)C1` (stereo partly drawn) [Example 374, 7-bromo-N-((aR)-6-(4-oxo-3,4-dihydrophthalazin-1-yl)spiro[3.3]heptan-2-yl)imidazo[1,2-a]pyridine-2-carboxamide], the IC50 lay within 15.1 to 100 nM.

For the compound `[H][C@]1(c2n[nH]c(=O)c3ccccc32)C[C@]2(C[C@@H](NC(=O)c3ccc(Br)cn3)C2)C1` (stereo partly drawn) [Example 375, 5-bromo-N-((aR)-6-(4-oxo-3,4-dihydrophthalazin-1-yl)spiro[3.3]heptan-2-yl)picolinamide], the IC50 was 15.1 to 100 nM.

In the case of `[H][C@]1(c2n[nH]c(=O)c3ccccc32)C[C@]2(C[C@@H](NC(=O)c3cn4ccccc4n3)C2)C1` (stereo partly drawn) [Example 377, N-((aR)-6-(4-oxo-3,4-dihydrophthalazin-1-yl)spiro[3.3]heptan-2-yl)imidazo[1,2-a]pyridine-2-carboxamide], the IC50 was in the range of 15.1 to 100 nM. In the case of `[H][C@]1(c2n[nH]c(=O)c3ccccc32)C[C@]2(C[C@@H](NC(=O)c3cnc4cc(N5CCN(C)CC5)ccn34)C2)C1` (stereo partly drawn) [Example 378], the IC50 lay in the range of 0.2 to 2 nM. Regarding `[H][C@]1(c2n[nH]c(=O)c3ccccc32)C[C@]2(C[C@@H](NC(=O)c3cnc4cc(C#N)ccn34)C2)C1` (stereo partly drawn) [Example 379, 7-cyano-N-((aR)-6-(4-oxo-3,4-dihydrophthalazin-1-yl)spiro[3.3]heptan-2-yl)imidazo[1,2-a]pyridine-3-carboxamide], the IC50 was 5.1 to 15 nM. As for `[H][C@]1(c2n[nH]c(=O)c3ccccc32)C[C@]2(C[C@@H](NC(=O)c3cnc4c(C#N)cccn34)C2)C1` (stereo partly drawn) [Example 380, 8-cyano-N-((aR)-6-(4-oxo-3,4-dihydrophthalazin-1-yl)spiro[3.3]heptan-2-yl)imidazo[1,2-a]pyridine-3-carboxamide], the IC50 lay in the range of 5.1 to 15 nM.

`[H][C@]1(c2n[nH]c(=O)c3ccccc32)C[C@]2(C[C@@H](NC(=O)c3cnc4c(C(F)(F)F)cccn34)C2)C1` (stereo partly drawn) [Example 381, N-((aR)-6-(4-oxo-3,4-dihydrophthalazin-1-yl)spiro[3.3]heptan-2-yl)-8-(trifluoro-methyl)imidazo[1,2-a]pyridine-3-carboxamide]: the IC50 lay within 2.01 to 5 nM.
